Measured values reported in patent publication US20060178374A1, “Aminoheteroaryl compounds as protein kinase inhibitors” (AGOURON PHARMACEUTICALS, INC., priority 2004, published 2006).

molecular target: HGFR (c-Met) (Homo sapiens, UniProt P08581); experiment: HGFR Continuous-Coupled Spectrophotometric Assay; format: biochemical; conditions: HGFR enzyme 50 nM, Met-2 peptide substrate, 37° C.
How it was run: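 Human HGFR (50 nM final) phosphorylates the Met-2 activation-loop peptide, with ADP formation coupled through PK/LDH to NADH consumption, read as the A340 decrease over 10 min at 37 °C. Buffer was HEPES pH 7.5 with MgCl2, DTT, PEP and ATP.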

Chain of HGFR (c-Met) (P08581 974-1390): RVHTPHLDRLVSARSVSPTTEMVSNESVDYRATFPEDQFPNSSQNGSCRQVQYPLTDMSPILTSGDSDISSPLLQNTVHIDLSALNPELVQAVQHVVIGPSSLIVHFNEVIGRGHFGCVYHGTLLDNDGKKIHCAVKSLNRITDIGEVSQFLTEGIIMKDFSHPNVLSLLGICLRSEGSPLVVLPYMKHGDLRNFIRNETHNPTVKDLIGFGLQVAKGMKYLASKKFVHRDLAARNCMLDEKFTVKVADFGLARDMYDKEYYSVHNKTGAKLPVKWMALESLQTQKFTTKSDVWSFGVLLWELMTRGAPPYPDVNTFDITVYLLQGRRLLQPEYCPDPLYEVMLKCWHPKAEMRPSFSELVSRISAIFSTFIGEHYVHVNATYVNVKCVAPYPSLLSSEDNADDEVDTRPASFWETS

Ki [nM] | SMILES
160 | CC(Oc1cc(-c2cnc(OC3CCNCC3)nc2)cnc1N)c1c(Cl)ccc(F)c1Cl (stereo not shown) [Example 116, 3-[1-(2,6-dichloro-3-fluorophenyl)ethoxy]-5-[2-(piperidin-4-yloxy)pyrimidin-5-yl]pyridin-2-amine]
160 | COc1ncc(-c2cnc(N)c(OC(C)c3c(Cl)ccc(OC)c3Cl)c2)cn1 (stereo not shown) [Example 117, 3-[1-(2,6-dichloro-3-methoxyphenyl)ethoxy]-5-(2-methoxypyrimidin-5-yl)pyridin-2-amine]
30 | CC(Oc1cc(-c2ccc(C(=O)N(C)CCN(C)C)cc2)cnc1N)c1c(Cl)ccc(F)c1Cl (stereo not shown) [Example 118, 4-{6-amino-5-[1-(2,6-dichloro-3-fluorophenyl)ethoxy]pyridin-3-yl}-N-[2-(dimethylamino)ethyl]-N-methylbenzamide]
1500 | C[C@H](Oc1cc(-c2ccc(C(=O)N3CCNCC3)cc2)cnc1N)c1c(Cl)ccc(F)c1Cl [Example 119, 3-[(1S)-1-(2,6-dichloro-3-fluorophenyl)ethoxy]-5-[4-(piperazin-1-ylcarbonyl)phenyl] pyridin-2-amine]
1000 | CC(Oc1cc(-c2cnc(N3CCN(C(=O)OC(C)(C)C)CC3)nc2)cnc1N)c1c(Cl)ccc(F)c1Cl (stereo not shown) [Example 120, tert-butyl 4-(5-{6-amino-5-[1-(2,6-dichloro-3-fluorophenyl)ethoxy]pyridin-3-yl}pyrimidin-2-yl)piperazine-1-carboxylate]
53 | CC(Oc1cc(-c2cnc(N3CCNCC3)nc2)cnc1N)c1c(Cl)ccc(F)c1Cl (stereo not shown) [Example 121, 3-[1-(2,6-dichloro-3-fluorophenyl)ethoxy]-5-(2-piperazin-1-ylpyrimidin-5-yl)pyridin-2-amine]
25 | CC(Oc1cc(-c2ccc(C(=O)N(C)CCCN(C)C)cc2)cnc1N)c1c(Cl)ccc(F)c1Cl (stereo not shown) [Example 122, 4-{6-amino-5-[1-(2,6-dichloro-3-fluorophenyl)ethoxy]pyridin-3-yl}-[3-(dimethylamino)propyl]-N-methylbenzamide]
60 | CNCCN(C)C(=O)c1ccc(-c2cnc(N)c(OC(C)c3c(Cl)ccc(F)c3Cl)c2)cc1 (stereo not shown) [Example 123, 4-{6-amino-5-[1-(2,6-dichloro-3-fluorophenyl)ethoxy]pyridin-3-yl}-N-methyl-N-[2-(methylamino)ethyl]benzamide]
20 | CC(Oc1cc(-c2ccc(NCC3(O)CCNCC3)nc2)cnc1N)c1c(Cl)ccc(F)c1Cl (stereo not shown) [Example 124, 4-[({6′-amino-5′-[1-(2,6-dichloro-3-fluorophenyl)ethoxy]-3,3′-bipyridin-6-yl}amino)methyl]piperidin-4-ol]
25 | CC(Oc1cc(-c2ccc(C3CCNCC3)cc2)cnc1N)c1c(Cl)ccc(F)c1Cl (stereo not shown) [Example 125, 3-[1-(2,6-dichloro-3-fluorophenyl)ethoxy]-5-(4-piperidin-4-ylphenyl)pyridin-2-amine]
10 | C[C@@H](Oc1cc(-c2ccc(C(=O)N(C)CCN(C)C)cc2)cnc1N)c1c(Cl)ccc(F)c1Cl [Example 126, 4-{6-amino-5-[(1 R)-1-(2,6-dichloro-3-fluorophenyl)ethoxy]pyridin-3-yl}-N-[2-(dimethylamino)ethyl]-N-methylbenzamide]
51 | C[C@@H](Oc1cc(-c2ccc(CO)cc2)cnc1N)c1c(Cl)ccc(F)c1Cl [Example 127, (4-{6-amino-5-[(1R)-1-(2,6-dichloro-3-fluorophenyl)ethoxy]pyridin-3-yl}phenyl)methanol]
10 | C[C@@H](Oc1cc(-c2ccc(C(=O)N(C)CCCN(C)C)cc2)cnc1N)c1c(Cl)ccc(F)c1Cl [Example 128, 4-{6-amino-5-[(1 R^15)-1-(2,6-dichloro-3-fluorophenyl)ethoxy]pyridin-3-yl}-N-[3-(dimethylamino)propyl]-N-methylbenzamide]
30 | C[C@@H](Oc1cc(-c2ccc(C(=O)N3CCN(C(=O)OC(C)(C)C)CC3)cc2)cnc1N)c1c(Cl)ccc(F)c1Cl [Example 129, tert-butyl 4-(4-{6-amino-5-[(1 R)-1-(2,6-dichloro-3-fluorophenyl)ethoxy]pyridin-3-yl}benzoyl)piperazine-1-carboxylate]
71 | CC(Oc1cc(-c2ccc(CO)cc2)cnc1N)c1c(Cl)ccc(F)c1Cl (stereo not shown) [Example 130, (4-{6-amino-5-[1-(2,6-dichloro-3-fluorophenyl)ethoxy]pyridin-3-yl}phenyl)methanol]
133 | COc1ccc(-c2cnc(N)c(OC(C)c3c(Cl)ccc(F)c3Cl)c2)cc1 (stereo not shown) [Example 131, 3-[1-(2,6-dichloro-3-fluorophenyl)ethoxy]-5-(4-methoxyphenyl)pyridin-2-amine]
69 | CC(Oc1cc(-c2cccc(CN)c2)cnc1N)c1c(Cl)ccc(F)c1Cl (stereo not shown) [Example 132, 5-[3-(aminomethyl)phenyl]-3-[1-(2,6-dichloro-3-fluorophenyl)ethoxy]pyridin-2-amine]
41 | CC(Oc1cc(-c2cccc(CC#N)c2)cnc1N)c1c(Cl)ccc(F)c1Cl (stereo not shown) [Example 133, (3-{6-amino-5-[1-(2,6-dichloro-3-fluorophenyl)ethoxy]pyridin-3-yl}phenyl)acetonitrile]
92 | CC(Oc1cc(-c2ccc(CC#N)cc2)cnc1N)c1c(Cl)ccc(F)c1Cl (stereo not shown) [Example 134, (4-{6-amino-5-[1-(2,6-dichloro-3-fluorophenyl)ethoxy]pyridin-3-yl}phenyl)acetonitrile]

Ki [nM] | SMILES
37 | CC(Oc1cc(-c2ccc(C(=O)N(C)C)cc2)cnc1N)c1c(Cl)ccc(F)c1Cl (stereo not shown) [Example 135, 4-{6-amino-5-[1-(2,6-dichloro-3-fluorophenyl)ethoxy]pyridin-3-yl}-N,N-dimethylbenzamide]
73 | CC(Oc1cc(-c2ccc(O)cc2)cnc1N)c1c(Cl)ccc(F)c1Cl (stereo not shown) [Example 136, 4-{6-amino-5-[1-(2,6-dichloro-3-fluorophenyl)ethoxy]pyridin-3-yl}phenol]
32 | CC(Oc1cc(-c2ccc(NS(C)(=O)=O)cc2)cnc1N)c1c(Cl)ccc(F)c1Cl (stereo not shown) [Example 138, N-(4-{6-amino-5-[1-(2,6-dichloro-3-fluorophenyl)ethoxy]pyridin-3-yl}phenyl) methanesulfonamide]
53 | CCS(=O)(=O)c1ccc(-c2cnc(N)c(OC(C)c3c(Cl)ccc(F)c3Cl)c2)cc1 (stereo not shown) [Example 139, 3-[1-(2,6-dichloro-3-fluorophenyl)ethoxy]-5-(4-(ethylsulfonyl)phenyl]pyridin-2-amine]
39 | COc1cc(-c2cnc(N)c(OC(C)c3c(Cl)ccc(F)c3Cl)c2)ccc1O (stereo not shown) [Example 140, 4-{6-amino-5-[1-(2,6-dichloro-3-fluorophenyl)ethoxy]pyridin-3-yl}-2-methoxyphenol]
54 | CC(Oc1cc(-c2cccc(NS(C)(=O)=O)c2)cnc1N)c1c(Cl)ccc(F)c1Cl (stereo not shown) [Example 141, N-(3-{6-amino-5-[1-(2,6-dichloro-3-fluorophenyl)ethoxy]pyridin-3-yl}phenyl) methanesulfonamide]
59 | CC(Oc1cc(-c2cccc(C(=O)N(C)C)c2)cnc1N)c1c(Cl)ccc(F)c1Cl (stereo not shown) [Example 142]
72 | CC(Oc1cc(-c2ccc3[nH]cc(CN(C)C)c3c2)cnc1N)c1c(Cl)ccc(F)c1Cl (stereo not shown) [Example 143, 3-[1-(2,6-dichloro-3-fluorophenyl)ethoxy]-5-{3-[(dimethylamino)methyl]-1H-indol-5-yl}pyridin-2-amine]
80 | CC(Oc1cc(-c2ccc(C[C@H](N)C(=O)O)cc2)cnc1N)c1c(Cl)ccc(F)c1Cl (stereo partly shown) [Example 144, 4-{6-amino-5-[1-(2,6-dichloro-3-fluorophenyl)ethoxy]pyridin-3-yl}phenylalanine]
69 | CC(Oc1cc(-c2ccc(CO)nc2)cnc1N)c1c(Cl)ccc(F)c1Cl (stereo not shown) [Example 145, {6′-amino-5′-[1-(2,6-dichloro-3-fluorophenyl)ethoxy]-3,3′-bipyridin-6-yl}methanol]
655 | CC(Oc1cc(-c2ccc(CO)cn2)cnc1N)c1c(Cl)ccc(F)c1Cl (stereo not shown) [Example 146, {6′-amino-5′-[1-(2,6-dichloro-3-fluorophenyl)ethoxy]-2,3′-bipyridin-5-yl}methanol]
73 | CC(=O)c1ccc(-c2cnc(N)c(OC(C)c3c(Cl)ccc(F)c3Cl)c2)cc1 (stereo not shown) [Example 147, 1-(4-{6-amino-5-[1-(2,6-dichloro-3-fluorophenyl)ethoxy]pyridin-3-yl}phenyl) ethanone]
153 | CC(Oc1cc(-c2ccc3c(ccn3C)c2)cnc1N)c1c(Cl)ccc(F)c1Cl (stereo not shown) [Example 148, 3-[1-(2,6-dichloro-3-fluorophenyl)ethoxy]-5-(1-methyl-1H-indol-5-yl)pyridin-2-amine]
370 | COc1ccc(-c2cnc(N)c(OC(C)c3c(Cl)ccc(F)c3Cl)c2)cc1CC#N (stereo not shown) [Example 149, (5-{6-amino-5-[1-(2,6-dichloro-3-fluorophenyl)ethoxy]pyridin-3-yl}-2-methoxyphenyl) acetonitrile]
200 | CC(O)c1cccc(-c2cnc(N)c(OC(C)c3c(Cl)ccc(F)c3Cl)c2)c1 (stereo not shown) [Example 150, 1-(3-{6-amino-5-[1-(2,6-dichloro-3-fluorophenyl)ethoxy]pyridin-3-yl}phenyl)ethanol]
12 | CC(Oc1cc(-c2ccc(C3(C#N)CCNCC3)cc2)cnc1N)c1c(Cl)ccc(F)c1Cl (stereo not shown) [Example 152, 4-(4-{6-amino-5-[1-(2,6-dichloro-3-fluorophenyl)ethoxy]pyridin-3-yl}phenyl) piperidine-4-carbonitrile]
6 | CC(Oc1cc(-c2cccc(C3(C#N)CCNCC3)c2)cnc1N)c1c(Cl)ccc(F)c1Cl (stereo not shown) [Example 153, 4-(3-{6-amino-5-[1-(2,6-dichloro-3-fluorophenyl)ethoxy]pyridin-3-yl}phenyl) piperidine-4-carbonitrile]
22 | CC(=O)N1CCC(C#N)(c2cccc(-c3cnc(N)c(OC(C)c4c(Cl)ccc(F)c4Cl)c3)c2)CC1 (stereo not shown) [Example 154, 1-acetyl-4-(3-{6-amino-5-[1-(2,6-dichloro-3-fluorophenyl)ethoxy]pyridin-3-yl}phenyl) piperidine-4-carbonitrile]
